Results published in patent US6596882B2, “Recovery and purification of 3,4-epoxy-1-butene using water-miscible solvents” (Eastman Chemical Company, priority 2001, dated 2003).

How the values were obtained:
[1] = Relative distribution coefficient of epoxybutene into the aqueous phase in the presence of a water-miscible solvent; assay type: physicochemical; conditions: one part solvent added to two parts of 2:1 water-epoxybutene mixture, room temperature, aqueous phase by GC; relative to water alone (=1.00)
Experimental: This example compares the absorption affinity of various water-miscible solvents for epoxybutene in the presence of water, as occurs in the absorbent zone of the present invention. A standard mixture of 2 parts by weight water and one part by weight epoxybutene was prepared. A portion of the standard solution was placed in a separatory funnel, shaken, allowed to settle, then separated into two liquid phases at room temperature. The water phase was analyzed by gas chromatography to determine the solubility of epoxybutene in pure water. Next, for each solvent specified in Table I, one part by weight water-miscible solvent was added to two parts of the standard water-epoxybutene solution. Each water-solvent-epoxybutene solution was placed in a separatory funnel, shaken, allowed to settle, then separated into two liquid phases at room temperature. The aqueous phase from the decantation was analyzed by gas chromatography to determine the epoxybutene solubility in that phase. From these compositions, distribution coefficients were calculated as: [formula]
The relative affinity of solvents for absorption of epoxybutene was determined from a relative molar distribution term, calculated as: [formula]

[2] = 25° C.; cited from earlier work
[3] = Rate of epoxybutene hydrolysis in phosphate buffers at different pH, followed by UV spectrophotometry; assay type: physicochemical
Experimental: The rate of epoxybutene hydrolysis was determined at several different pH levels according to the following procedure: A stirred, thermostatted cell was filled with a solution of buffered water and allowed to equilibrate at a temperature of 29° C. Phosphate buffers at a pH of 3, 5, 7, 8, 9, and 11 were prepared by adding either phosphoric acid or sodium hydroxide to a 0.05 M solution of disodium phosphate. For each experiment, the buffer solution was charged to a stirred, thermostatted equilibrium cell equipped with an UV spectrophometer probe. Once the solution had equilibrated at 29° C. and a background spectra had been collected, a 10 microliter standard sample of epoxybutene in acetronitrile (warmed to 29° C.) was injected into the cell to give an initial concentration of 0.01M epoxybutene. The disappearance of epoxybutene and formation of 3-butene-1,2-diol over time was followed by UV spectrophotometry.

Compound | Relative Distribution [1] | also measured
CCCCOCCOCCO [2-(2-Butoxyethoxy)ethanol] | 4.30 | 
COCCOCCO [2-(2-Methoxyethoxy)ethanol] | 1.83 | 
CCCCOCCO [2-Butoxyethanol] | 1.29 | 
CCCOCCO [2-Propoxyethanol] | 1.49 | 
CC#N [Acetonitrile] | 1.89 | 
CN(C)C=O [Dimethylformamide] | 2.44 | 
C[S+](C)[O-] [Dimethylsulfoxide] | 1.40 | 
C=CC1CO1 (stereo not shown) [Epoxybutene, 3,4-epoxy-1-butene] |  | solubility of epoxybutene in water [2]: 5 to 6 weight percent; Relative Rate of Epoxybutene Hydrolysis ([3]; pH 3, phosphate buffer, 29° C., relative to pH 7): 555.5; Relative Rate of Epoxybutene Hydrolysis ([3]; pH 3, phosphate buffer, 29° C., relative to pH 7, listed as epoxybutene): over 500; Relative Rate of Epoxybutene Hydrolysis ([3]; pH 5, phosphate buffer, 29° C., relative to pH 7): 5.6; Relative Rate of Epoxybutene Hydrolysis ([3]; pH 7, phosphate buffer, 29° C. (reference)): 1.0; Relative Rate of Epoxybutene Hydrolysis ([3]; pH 8, phosphate buffer, 29° C., relative to pH 7): 0.7; Relative Rate of Epoxybutene Hydrolysis ([3]; pH 8, phosphate buffer, 29° C., relative to pH 7, listed as epoxybutene): about 0.7; Relative Rate of Epoxybutene Hydrolysis ([3]; pH 9, phosphate buffer, 29° C., relative to pH 7): 3.2; Relative Rate of Epoxybutene Hydrolysis ([3]; pH 11, phosphate buffer, 29° C., relative to pH 7): 17.6; Relative Rate of Epoxybutene Hydrolysis ([3]; pH 11, phosphate buffer, 29° C., relative to pH 7, listed as epoxybutene): over 17
OCCO [Ethylene Glycol] | 1.14 | 

The next lines start with results.

Relative Distribution [1] | Compound | also measured
2.78 | CN1CCCC1=O [1-Methyl-2-Pyrrolidinone] | 
1.05 | COC(C)COC(C)=O (stereo not shown) [2-Methoxypropyl Acetate] | 
1.39 | C=CC(O)CO (stereo not shown) [3-Buten-1,2-Diol] | 
2.02 | COCC(C)O (stereo not shown) [Propylene Glycol Monomethyl Ether] | 
1.90 | CC(O)CO (stereo not shown) [Propylene Glycol] | 
1.03 | c1ccc2ncccc2c1 [Quinoline] | 
1.54 | COCCOCCOCCOC [Triglyme] | 
